This is an account of results in paper PMC2669215, “SVOP Is a Nucleotide Binding Protein” (PLoS ONE, 2009).

The target of experiment [1] is T1, SVOP-FLAG (Rattus norvegicus, UniProt Q9Z2I7).
T1 construct: full length (548 residues), C-terminal FLAG tag (DYKDDDK) kept; expressed in HEK293, purified on anti-FLAG M2 gel
T1 sequence (Q9Z2I7 1-548): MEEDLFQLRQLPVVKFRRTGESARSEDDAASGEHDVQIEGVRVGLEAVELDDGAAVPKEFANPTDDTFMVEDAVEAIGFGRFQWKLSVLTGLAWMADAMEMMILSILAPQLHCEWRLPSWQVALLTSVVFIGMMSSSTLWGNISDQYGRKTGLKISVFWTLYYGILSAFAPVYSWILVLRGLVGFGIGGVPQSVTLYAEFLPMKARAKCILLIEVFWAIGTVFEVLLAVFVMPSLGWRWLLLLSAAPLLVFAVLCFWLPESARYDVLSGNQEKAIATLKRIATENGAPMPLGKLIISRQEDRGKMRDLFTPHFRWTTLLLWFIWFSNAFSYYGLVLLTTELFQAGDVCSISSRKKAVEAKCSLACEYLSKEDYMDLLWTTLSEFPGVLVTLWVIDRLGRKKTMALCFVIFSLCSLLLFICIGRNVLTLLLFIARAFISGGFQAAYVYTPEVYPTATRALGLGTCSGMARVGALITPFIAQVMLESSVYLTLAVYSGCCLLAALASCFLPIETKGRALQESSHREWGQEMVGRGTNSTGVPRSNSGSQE
The experiment in a line: competition with 8-azido-ATP[γ] biotin photoaffinity labeling, western blot. It is filed as binding. To be noted: read-out: half maximum inhibition concentration.

The target of experiment [2] is T1, SVOP-FLAG. The experiment is described as above. It is filed as binding. To be noted: 100 µM 8-azido-ATP[γ] biotin, pH 7.4, on ice.

In the case of `Nc1ncnc2c1ncn2[C@@H]1O[C@H](COP(=O)(O)OP(=O)(O)OP(=O)(O)O)[C@@H](O)[C@H]1O` [ATP], on SVOP-FLAG [1], the IC50 was approximately 750 µM.
Consider `Nc1ccn([C@@H]2O[C@H](COP(=O)(O)OP(=O)(O)OP(=O)(O)O)[C@@H](O)[C@H]2O)c(=O)n1` [CTP], for which the “decrease of labeling at 1 mM” value on SVOP-FLAG [2] was “TTP and CTP produced the least inhibition”.
As for `Nc1nc2c(ncn2[C@@H]2O[C@H](COP(=O)(O)OP(=O)(O)OP(=O)(O)O)[C@@H](O)[C@H]2O)c(=O)[nH]1` [GTP], the “decrease of labeling at 1 mM” value at SVOP-FLAG [2] is “ATP, GTP and NAD displayed the strongest inhibition”.
Take `NC(=O)c1ccc[n+]([C@@H]2O[C@H](COP(=O)(O)OP(=O)(O)OC[C@H]3O[C@@H](n4cnc5c(N)ncnc54)[C@H](O)[C@@H]3O)[C@@H](O)[C@H]2O)c1` [NAD]: the IC50 at SVOP-FLAG [1] was approximately 250 µM.
With `Cc1cn([C@H]2C[C@H](O)[C@@H](COP(=O)(O)OP(=O)(O)OP(=O)(O)O)O2)c(=O)[nH]c1=O` [TTP], the “decrease of labeling at 1 mM” value on SVOP-FLAG [2] was “TTP and CTP produced the least inhibition”.
